Read-outs that look alike come from different tables or passages of the source.
Legend:
[1] = test system: DLD-1 cells; assay: Inhibition of proliferation, DLD-1 BRCA2 wt control (Cell Titre Glo 3D); format: cell-based; settings: for IC50: Homo sapiens
How it was run: (§1)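 DLD-1 BRCA2−/− and parental DLD-1 cells exposed to 10-point dose range (10 μM to 0.51 nM, 3-fold) in RPMI/10% FBS at 37 °C, with medium and compound replenished on day 6. Viability by Cell Titre Glo 3D luminescence at day 7 (DLD-1) or day 12 (BRCA2−/−); IC50 as concentration halving maximum signal.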

[2] = test system: DLD-1 BRCA2−/− cells; assay: Homologous recombination synthetic lethal inhibition of proliferation, DLD-1 BRCA2-/- (Cell Titre Glo 3D); format: cell-based; settings: for IC50: Homo sapiens
How it was run: as §1

[3] = DLD-1, second proliferation column (c6), taken as DLD-1 BRCA2 wt, read-out: POLQ PD Prolif Lumin (converted)
[4] = DLD-1, first proliferation column (c5), taken as DLD-1 BRCA2-/-, read-out: POLQ PD Prolif Lumin (converted)
[5] = DLD-1, 168 h, DLD-1 BRCA2 wt cells, 7 days, read-out: POLQ PD Prolif Lumin DLD1 mean pIC50 (converted)
[6] = DLD-1, 288 h, DLD-1 BRCA2−/− cells, 12 days, read-out: POLQ PD Prolif Lumin BRCA2 −/− mean pIC50 (converted)
[7] = DLD-1, second proliferation column (c6), DLD-1 BRCA2 wt control, read-out: POLQ PD Prolif Lumin (converted)
[8] = DLD-1, first proliferation column (c5), DLD-1 BRCA2-/-, read-out: POLQ PD Prolif Lumin (converted)
[9] = DLD-1, DLD1 BRCA2 wt cells, mean, read-out: POLQ PD Prolif Lumin DLD1 mean PIC50 (converted)
[10] = DLD-1, DLD-1 BRCA2 −/− cells, mean, read-out: POLQ PD Prolif Lumin BRCA2 −/− mean pIC50 (converted)
[11] = DLD-1, DLD1 BRCA2 wt, mean, read-out: POLQ PD Prolif Lumin DLD1 mean pIC50 (converted)
[12] = DLD-1, DLD-1 BRCA2 −/−, mean, read-out: POLQ PD Prolif Lumin BRCA2 −/− mean pIC50 (converted)

IC50 [1, 5] [nM]	SMILES	IC50 [2, 6] [nM]	also measured
–	Cc1ccnc(Cn2c(-c3ccc(OC[C@H]4CCCN4)cc3Cl)nc3c(OC4(C)CC4)ncnc32)c1 [Example T356, (R)-8-(2-chloro-4-(pyrrolidin-2-ylmethoxy)phenyl)-6-(1-methylcyclopropoxy)-9-((4-methylpyridin-2-yl)methyl)-9H-purine]	–	IC50 [1, 3]: > 10000 nM; IC50 [2, 4]: 200 nM
> 10000	COc1ccnc(Cn2c(-c3ccc(OCCN4CCNCC4)cc3Cl)nc3c(OC4(C)CC4)ncnc32)c1 [Example L5, 8-(2-chloro-4-(2-(piperazin-1-yl)ethoxy)phenyl)-9-((4-methoxypyridin-2-yl)methyl)-6-(1-methylcyclopropoxy)-9H-purine]	1580	–
–	CC1(Oc2ncnc3c2nc(-c2ccc(OCCC(=O)O)cc2Cl)n3Cc2cccc(C(F)(F)F)c2)CC1 [Example T151, 3-(3-chloro-4-(6-(1-methylcyclopropoxy)-9-(3-(trifluoromethyl)benzyl)-9H-purin-8-yl)phenoxy)propanoic acid]	–	IC50 [1, 7]: > 10000 nM; IC50 [2, 8]: 398 nM
> 10000	CC1(Oc2ncnc3c2nc(-c2ccc(OCCN4CCNCC4)cc2Cl)n3Cc2cccc(Cl)n2)CC1 [Example 23, 8-(2-chloro-4-(2-(piperazin-1-yl)ethoxy)phenyl)-9-((6-chloropyridin-2-yl)methyl)-6-(1-methylcyclopropoxy)-9H-purine]	631	–
–	CC1(Oc2ncnc3c2nc(-c2ccc(OCCCOCCC(=O)O)cc2Cl)n3Cc2cccc(Cl)c2)CC1 [Example T449, 3-(3-(3-chloro-4-(9-(3-chlorobenzyl)-6-(1-methylcyclopropoxy)-9H-purin-8-yl)phenoxy)propoxy)propanoic acid]	–	IC50 ([1]; DLD-1, proliferation, luminescence, second Prolif column (c6), taken as DLD-1 BRCA2 wt control, read-out: POLQ PD Prolif Lumin (converted)): > 10000 nM; IC50 ([2]; DLD-1, proliferation, luminescence, taken as DLD-1 BRCA2-/-, read-out: POLQ PD Prolif Lumin (converted)): 50.1 nM
3980	CC1(Oc2ncnc3c2nc(-c2cc(Cl)c(OCCN4CCNCC4)cc2Cl)n3Cc2ccccc2)CC1 [Example J4, 9-benzyl-8-(2,5-dichloro-4-(2-(piperazin-1-yl)ethoxy)phenyl)-6-(1-methylcyclopropoxy)-9H-purine]	50.1	–
–	Cc1cnc(Cn2c(-c3ccc(OC4CCCNCC4)cc3Cl)nc3c(OC4(C)CC4)ncnc32)s1 (single isomer, unassigned) [Example T243, 2-((8-(4-(azepan-4-yloxy)-2-chlorophenyl)-6-(1-methylcyclopropoxy)-9H-purin-9-yl)methyl)-5-methylthiazole]	–	POLQ PD Prolif Lumin ([1]; DLD-1 BRCA2 wt control proliferation, column head only partly shown): <5.0; POLQ PD Prolif Lumin ([2]; DLD-1 BRCA2-/- proliferation, column head only partly shown): 6.3
> 10000	CN(CCOc1ccc(-c2nc3c(OC4(C)CC4)ncnc3n2Cc2ccccc2)c(Cl)c1)CC(=O)O [Example D30, N-(2-(4-(9-benzyl-6-(1-methylcyclopropoxy)-9H-purin-8-yl)-3-chlorophenoxy)ethyl)-N-methylglycine]	1260	–
6310	Cc1cc(OCCCN2CCNCC2)ncc1-c1nc2c(OC3(C)CC3)ncnc2n1Cc1ccccc1 [Example G1, 9-benzyl-8-(4-methyl-6-(3-(piperazin-1-yl)propoxy)pyridin-3-yl)-6-(1-methylcyclopropoxy)-9H-purine]	501	–
–	Cc1ccnc(Cn2c(-c3ccc(O[C@@H]4CCNC4=O)cc3Cl)nc3c(OC4(C)CC4)ncnc32)c1 [Example T186, (R)-3-(3-chloro-4-(6-(1-methylcyclopropoxy)-9-((4-methylpyridin-2-yl)methyl)-9H-purin-8-yl)phenoxy)pyrrolidin-2-one]	–	IC50 [1, 7]: > 10000 nM; IC50 [2, 8]: 251 nM
–	CC1(Oc2ncnc3c2nc(-c2cccc(/C=C/C(=O)O)c2Cl)n3Cc2cccc(Cl)c2)CC1 [Example T80, (E)-3-(2-chloro-3-(9-(3-chlorobenzyl)-6-(1-methylcyclopropoxy)-9H-purin-8-yl)phenyl)acrylic acid]	–	IC50 [1, 9]: > 10000 nM; IC50 [2, 10]: 100 nM
–	Cc1ccnc(Cn2c(-c3ccc(S(N)(=O)=O)cc3Cl)nc3c(OC4(C)CC4)ncnc32)c1 [Example T9, 3-chloro-4-(6-(1-methylcyclopropoxy)-9-((4-methylpyridin-2-yl)methyl)-9H-purin-8-yl)benzenesulfonamide]	–	IC50 [1, 9]: > 10000 nM; IC50 [2, 10]: 501 nM
3980	CC1(Oc2ncnc3c2nc(-c2ccc(OCCN4CC5(C4)CS(=O)(=O)C5)cc2Cl)n3Cc2ccccc2)CC1 [Example H20, 6-(2-(4-(9-benzyl-6-(1-methylcyclopropoxy)-9H-purin-8-yl)-3-chlorophenoxy)ethyl)-2-thia-6-azaspiro[3.3]heptane 2,2-dioxide]	100	–
> 10000	Cc1ccnc(Cn2c(-c3ccc(OCCN4CCNCC4)cc3Cl)nc3c(OC4(C)CC4)ncnc32)c1 [Example L2, 8-(2-chloro-4-(2-(piperazin-1-yl)ethoxy)phenyl)-6-(1-methylcyclopropoxy)-9-((4-methylpyridin-2-yl)methyl)-9H-purine]	398	–
> 10000	Cc1cccnc1Cn1c(-c2ccc(OCCN3CCNCC3)cc2Cl)nc2c(OC3(C)CC3)ncnc21 [Example L9, 8-(2-chloro-4-(2-(piperazin-1-yl)ethoxy)phenyl)-6-(1-methylcyclopropoxy)-9-((3-methylpyridin-2-yl)methyl)-9H-purine]	3160	–
> 10000	Cc1cc(N2CCNCC2)ncc1-c1nc2c(OC3(C)CC3)ncnc2n1Cc1ccccc1 [Example C5, 9-benzyl-8-(4-methyl-6-(piperazin-1-yl)pyridin-3-yl)-6-(1-methylcyclopropoxy)-9H-purine]	316	–
–	C[C@H](CCOc1ccc(-c2nc3c(OC4(C)CC4)ncnc3n2Cc2cc(Cl)ccc2C#N)c(Cl)c1)C(=O)O [Example U81, (R)-4-(3-chloro-4-(9-(5-chloro-2-cyanobenzyl)-6-(1-methylcyclopropoxy)-9H-purin-8-yl)phenoxy)-2-methylbutanoic acid]	–	IC50 [1, 11]: > 10000 nM; IC50 [2, 12]: 20 nM
1580	C[C@@H]1CN(CCOc2ccc(-c3nc4c(OC5(C)CC5)ncnc4n3Cc3ccccc3)c(Cl)c2)C[C@H](C)N1 [Example R9, (cis)-9-benzyl-8-(2-chloro-4-(2-(3,5-dimethylpiperazin-1-yl)ethoxy)phenyl)-6-(1-methylcyclopropoxy)-9H-purine]	50.1	–
2510	CC1(Oc2ncnc3c2nc(-c2ccc(OCCN4CCCNCC4=O)cc2Cl)n3Cc2ccccc2)CC1 [Example R12, 1-(2-(4-(9-benzyl-6-(1-methylcyclopropoxy)-9H-purin-8-yl)-3-chlorophenoxy)ethyl)-1,4-diazepan-2-one]	100	–
> 10000	Cc1cc(N2CCC(N(C)C)CC2)ncc1-c1nc2c(OC3(C)CC3)ncnc2n1Cc1ccccc1 [Example F3, 1-(5-(9-benzyl-6-(1-methylcyclopropoxy)-9H-purin-8-yl)-4-methylpyridin-2-yl)-N,N-dimethylpiperidin-4-amine]	251	–
–	COc1ccc(Cl)cc1Cn1c(-c2cccc(O[C@H]3C[C@H](C(=O)O)C3)c2Cl)nc2c(OC3(C)CC3)ncnc21 [Example U51, (1r,3r)-3-(2-chloro-3-(9-(5-chloro-2-methoxybenzyl)-6-(1-methylcyclopropoxy)-9H-purin-8-yl)phenoxy)cyclobutane-1-carboxylic acid]	–	POLQ PD Prolif Lumin DLD1 mean pIC50 ([1]; DLD1 BRCA2 wt, mean): <5.0; POLQ PD Prolif Lumin BRCA2 −/− mean pIC50 ([2]; DLD-1 BRCA2 −/−, mean): 7.2
–	CC1(Oc2ncnc3c2nc(-c2ccc(F)c(OCCC(=O)O)c2Cl)n3Cc2cccc(Cl)c2)CC1 [Example U65, 3-(2-chloro-3-(9-(3-chlorobenzyl)-6-(1-methylcyclopropoxy)-9H-purin-8-yl)-6-fluorophenoxy)propanoic acid]	–	IC50 [1, 11]: > 10000 nM; IC50 [2, 12]: 251 nM
> 10000	CC1(Oc2ncnc3c2nc(-c2ccc(OCCN4CC5(CC(O)C5)C4)cc2Cl)n3Cc2cc(Cl)ccn2)CC1 [Example R1, 2-(2-(3-chloro-4-(9-((4-chloropyridin-2-yl)methyl)-6-(1-methylcyclopropoxy)-9H-purin-8-yl)phenoxy)ethyl)-2-azaspiro[3.3]heptan-6-ol]	126	–
–	Cc1ccnc(Cn2c(-c3ccc(OC4CCNCC4)cc3Cl)nc3c(OC4(C)CC4)ncnc32)c1 [Example T354, 8-(2-chloro-4-(piperidin-4-yloxy)phenyl)-6-(1-methylcyclopropoxy)-9-((4-methylpyridin-2-yl)methyl)-9H-purine]	–	IC50 [1, 3]: > 10000 nM; IC50 [2, 4]: 501 nM

SMILES	IC50 [1, 5] [nM]	IC50 [2, 6] [nM]	also measured
Cc1cc(OCCN2CCNCC2)ncc1-c1nc2c(OC3(C)CCC3)ncnc2n1Cc1ccccc1 [Example 24, 9-Benzyl-8-(4-methyl-6-(2-(piperazin-1-yl)ethoxy)pyridin-3-yl)-6-(1-methylcyclobutoxy)-9H-purine]	3980	158	–

Source: patent US20250195530A1, “POLQ INHIBITORS” (ASTRAZENECA AB, priority 2022, published 2025)
